Each structure is given as a SMILES string.

91 compounds from ChEMBL document CHEMBL3507680, “University of Dundee, Gates Library screen for HepG2 cell viability” can be followed below.

This data set in a line: Human HepG2 cell viability assay in 384 well format. To be noted: HepG2 cells, read-out: Inhibition. More on the design: dose 125 nL, time 70.5 hour; concentration not given beside the values. In kind it is toxicity, cell-based.

In the case of `c1cc(CN2CCc3c(CN4CCCC4)n[nH]c3C2)ccn1`, the cytotoxicity at 70.5 h worked out at 23.4%.
Consider `C[C@H]1C[C@@H]2CCN(Cc3nccs3)C[C@H]2O1`, for which the cytotoxicity at 70.5 h was -9.2%.
For the compound `Cc1nnc(C[C@@H]2COC[C@H]3CN(C(=O)c4ccco4)C[C@@H]23)o1`, the cytotoxicity at 70.5 h is -9.01%.
Regarding `Cc1nnc(C[C@@H]2COC[C@H]3CN(C(=O)C4=CCCC4)C[C@@H]23)o1`, the cytotoxicity at 70.5 h is -13.7%.
Take `Cc1cc(C(=O)N2CCCC3(COCCN(c4ccccc4)C3)C2)[nH]n1` (stereo unspecified): the cytotoxicity at 70.5 h is -10.7%.
Consider `CCN1CC2(CC1=O)CN(C(C)=O)CCN(S(C)(=O)=O)C2` (stereo unspecified), for which the cytotoxicity at 70.5 h is -13.4%.
As for `CC(C)Nc1nc2c(c(NC3CC3)n1)CN(C(=O)c1ccncc1)CC2`, the figure is 32.7%; as for `C[C@H]1C[C@H]2CN(C(=O)c3cccc4c3OCCO4)CC[C@H]2O1`, 32.2%.
On to `O=C(COC1CCCC1)N1CC[C@H]2OCC[C@@]2(COCC2CC2)C1`, for which the cytotoxicity at 70.5 h was -3.35%.
As for `CCOCC1CN(C(=O)[C@H]2CCCO2)Cc2nnn(CC3CC3)c21` (stereo partly specified), the cytotoxicity at 70.5 h is -1.02%.
On to `CC(C)N1CCC(c2ccnc3c(C(=O)N4CCCC4)ncn23)CC1`, for which the cytotoxicity at 70.5 h is -3.82%.
As to `CCN1C(=O)CC(c2ccccc2)C12CCN(c1ncc(C)cn1)CC2` (stereo unspecified), the cytotoxicity at 70.5 h is -3.7%.
As to `CCN(C)C(=O)c1ncn2c(C3CCN(S(C)(=O)=O)CC3)ccnc12`, the cytotoxicity at 70.5 h is -5.47%.
For the compound `CCN1C(=O)CC(c2cccnc2)C12CCN(c1ncc(F)cn1)CC2` (stereo unspecified), the cytotoxicity at 70.5 h was determined as 1.09%.
For the compound `O=C(c1ncn2c(C3CCN(CC4CC4)CC3)ccnc12)N1CCCC1`, the cytotoxicity at 70.5 h was 0.745%.
For `CC(=O)NCC(=O)N1CCc2nc(C)nc(C)c2CC1`, the cytotoxicity at 70.5 h amounted to 5.59%.
On to `CCNC(=O)N1CCC2(CC1)CCn1c(-c3ccccc3)cnc12`, for which the cytotoxicity at 70.5 h was -3.37%.
To `Cc1nnc([C@H]2C[C@H]3OCC[C@H]3N(S(=O)(=O)N(C)C)C2)o1` belongs -3.65%.
As for `O=C(Nc1cnccn1)[C@@H]1COC[C@H]2CN(c3ncc(F)cn3)C[C@H]21`, the cytotoxicity at 70.5 h is -4.35%.
With `CC1CCN(c2ccc3c(-c4ncc(C(=O)O)s4)noc3c2)CC1`, the cytotoxicity at 70.5 h was -5.23%.
Turning to `CCOC1CC2(CCN(c3cnccn3)CC2)c2ccccc21` (stereo unspecified), the cytotoxicity at 70.5 h was -4.37%.
Turning to `Cn1cnc2c1C(C(=O)N1CCOCC1)N(C(=O)c1ccccc1)CC2` (stereo unspecified), the cytotoxicity at 70.5 h was -4.08%.
In the case of `Cc1nc(CN2CCc3nc(N4CCCC4)nc(NC(C)C)c3C2)cs1`, the cytotoxicity at 70.5 h was -3.99%.
`COC[C@H]1CCC[C@]12CN(S(=O)(=O)c1cccs1)CCO2`: the cytotoxicity at 70.5 h is -4.35%.
To `Cc1ccsc1C(=O)N1CCC2(CC(C(=O)N(C)C(C)C)=NO2)C1` (stereo unspecified) belongs -2.65%; to `Cc1cccc(C(=O)N2CCC3(CC(C(=O)N(C)C(C)C)=NO3)C2)c1` (stereo unspecified), -3.14%.
`COCC(=O)NCc1cc(=O)n2c(n1)CN(Cc1ccoc1)CCC2`: the cytotoxicity at 70.5 h came out at 1.73%.
Consider `Cc1ccc(N2CCCC3(COCCN(c4cnccn4)C3)C2)nn1` (stereo unspecified), for which the cytotoxicity at 70.5 h is -0.306%.
Turning to `Cc1cc(C(=O)N2CCc3c(CN(C)C(C)C)n[nH]c3C2)[nH]n1`, the cytotoxicity at 70.5 h came out at 0.919%.
On to `COCC(=O)N1CCCn2c(CN3CCCC3)nnc2C1`, for which the cytotoxicity at 70.5 h is -4.43%.
To `CCNC(=O)N1CCC2(C1)c1ccccc1S(=O)(=O)N2CCOC` (stereo unspecified) belongs 5.14%; to `CCCS(=O)(=O)N1C[C@@H](c2nc(C)no2)C[C@H]2OCC[C@H]21`, -0.391%.
With `CC(=O)N1CC[C@@H]2O[C@@H](COCC(=O)N3CCCC3)CC[C@@H]21`, the cytotoxicity at 70.5 h came out at 23.9%.
Regarding `COc1cc(N2C[C@H](C(=O)N3CCCC3)[C@@H]3CCO[C@@H]3C2)ncn1`, the cytotoxicity at 70.5 h was -0.329%.
With `CCN1C(=O)CC[C@@H]2[C@H]1CCN2S(=O)(=O)Cc1ccc(C)cc1`, the cytotoxicity at 70.5 h was -0.603%.
To `CS(=O)(=O)N1CCOCC2(CCN(C(=O)c3cnccn3)CC2)C1` belongs 17.6%; to `COCc1nn(C(C)C)c2c1CCN(Cc1ccsc1)C2`, -5.82%.
As for `CN(C)C(=O)c1nn(C)c2c1CN(Cc1ccoc1)C2`, the cytotoxicity at 70.5 h is -7.04%.
For `CCN1C(=O)C[C@@H]2[C@@H]1CCN2S(=O)(=O)Cc1ccc(C)cc1`, the cytotoxicity at 70.5 h turned out to be 1.97%.
As for `Cc1nc(CO[C@@H]2CN(Cc3ccccn3)[C@@H]3COC[C@@H]32)cs1`, the figure is -7.36%.
For the compound `Cc1nc(CO[C@@H]2CN(Cc3ccc(F)cc3)[C@@H]3COC[C@@H]32)cs1`, the cytotoxicity at 70.5 h is -7.17%.
With `Cc1ccc(CN2Cc3c(cnn3C)C(COCC3CC3)C2)s1` (stereo unspecified), the cytotoxicity at 70.5 h came to 35.1%.
Take `CN(C)S(=O)(=O)N1CCC2(COCc3cnc(NCC4CC4)nc32)C1` (stereo unspecified): the cytotoxicity at 70.5 h came to 29.2%.
Consider `COCC(=O)N1CCC2(CCN(c3cnn(C)c3)C2=O)C1` (stereo unspecified), for which the cytotoxicity at 70.5 h was determined as 34.5%.
For the compound `CCCS(=O)(=O)N1CCC2(CCN(Cc3cccc(F)c3)C2=O)C1` (stereo unspecified), the cytotoxicity at 70.5 h came to 36.3%.
To `N#Cc1ccc(OC[C@]23COC[C@H]2CN(Cc2ccccn2)C3)nc1` belongs 0.477%; to `Cc1cnc(C(=O)N2CCCC3(CCN(c4cnn(C)c4)C3=O)C2)cn1` (stereo unspecified), -3.83%; to `Cn1cc(N2CCC3(CCCN(C(=O)c4ccnn4C)C3)C2=O)cn1` (stereo unspecified), -4.7%.
On to `c1cc(-c2ccc3c(c2)C2(CC3)CCN(c3nncs3)CC2)ccn1`, for which the cytotoxicity at 70.5 h is 1.28%.
As for `Cc1nc(COC[C@H]2CC[C@H]3NCC[C@H]3O2)cs1`, the cytotoxicity at 70.5 h is -6.2%.
As for `Cc1cc(C(=O)N2CCC3(CC2)COCCN(c2cccnc2)C3)[nH]n1`, the figure is -3.67%.
For the compound `CN(C)C(=O)COC[C@@]12CCC[C@@H]1CN(C1CCC1)C2`, the cytotoxicity at 70.5 h is -10.9%.
As to `C[C@@H]1C[C@H]2CN(Cc3nccs3)C[C@H]2O1`, the cytotoxicity at 70.5 h was -10.9%.
Take `CN(C)C(=O)COC[C@@]12CCC[C@@H]1CNC2`: the cytotoxicity at 70.5 h was -13.5%.
On to `CS(=O)(=O)N1CCOCC2(CCN(Cc3ccc[nH]3)CC2)C1`, for which the cytotoxicity at 70.5 h was -5.4%.
To `Cc1nc(CN2CCC3(CC2)CC(=O)N(C)c2ccccc23)cs1` belongs -7.28%; to `COCCN1CCO[C@H]2CCN(C(=O)c3cccs3)CC[C@@H]21`, 5.33%; to `Cc1noc([C@H]2C[C@H]3OCC[C@H]3N(C3CCC3)C2)n1`, 24.7%.
For the compound `CN(C)c1nccc(N2CCO[C@H]3CN(Cc4nccn4C)C[C@H]32)n1`, the cytotoxicity at 70.5 h is -0.595%.
Turning to `Cc1nc(CN2C(=O)COC3(CCN(CC4CC4)CC3)C2C)cs1` (stereo unspecified), the cytotoxicity at 70.5 h worked out at 2.37%.
To `Cc1cc(C(=O)N2CCC3(CC2)CC(c2cccnc2)C(=O)N3)no1` (stereo unspecified) belongs 1.95%; to `CCN(CC)Cc1cn2c(n1)CN(C(=O)Cc1ccsc1)CC2`, -5.15%.
Turning to `Cc1ccc(N2CCCC3(COCCN(c4ncccn4)C3)C2)nn1` (stereo unspecified), the cytotoxicity at 70.5 h amounted to 4.86%.
Consider `O=C(c1cnc2ccccc2c1)N1CCC2(CCN2c2ncccn2)C1` (stereo unspecified), for which the cytotoxicity at 70.5 h came out at 2.76%.
As for `Cc1nc(CN2C(=O)COC3(CCN(C)CC3)C2C)cs1` (stereo unspecified), the cytotoxicity at 70.5 h worked out at 4.23%.
Regarding `O=C(c1ccccc1)N1CCC2(CCCN2c2ncccn2)CC1`, the cytotoxicity at 70.5 h was 3.93%.
For the compound `Cc1cccc(C(=O)N2C[C@@H]3COC[C@@H](CC(=O)N4CCCC4)[C@@H]3C2)n1`, the cytotoxicity at 70.5 h amounted to 4.3%.
To `O=C1COC2(CCN(Cc3nccs3)CC2)CN1c1ccccc1` belongs 5.28%.
As for `Cn1cccc1C(=O)N1CC[C@@H]2[C@@H]1CC(=O)N2CCN1CCOCC1`, the figure is -4.61%; as for `CN(C)C(=O)c1nn(C)c2c1CN(Cc1ccc(F)cc1)C2`, -6.32%.
On to `CS(=O)(=O)NCc1cnc2n1CCN(Cc1ccoc1)CC2`, for which the cytotoxicity at 70.5 h was -9.11%.
As for `Cc1csc(CN2CC[C@H]3C[C@H](c4nc(C)no4)O[C@@H]3C2)n1`, the figure is -10.4%; as for `Cc1nc(CO[C@@H]2CN(Cc3nccs3)[C@@H]3COC[C@@H]32)cs1`, -6.11%.
As for `O=C1C[C@H]2[C@@H](CCN2C(=O)c2ccoc2)N1CCN1CCOCC1`, the cytotoxicity at 70.5 h was -7.58%.
Regarding `COCc1nn(C(C)C)c2c1CCN(Cc1ccoc1)C2`, the cytotoxicity at 70.5 h was -6.52%.
To `CS(=O)(=O)N1CCC2(CCN(C(=O)c3cccnc3)CC2)C1` belongs -7.54%.
`COCc1nn(C(C)C)c2c1CCN(Cc1nccs1)C2`: the cytotoxicity at 70.5 h was 12.2%.
Regarding `COCCN1CCC(c2nc3ccc(-c4ccccc4)cn3n2)CC1`, the cytotoxicity at 70.5 h amounted to 1.72%.
In the case of `CN1CCC(c2nc3ccc(-c4ccccc4)cn3n2)CC1`, the cytotoxicity at 70.5 h was -3.45%.
Take `O=C(N1CCCC1)N1CCC[C@]2(C[C@@H](Oc3ncccc3F)CO2)C1`: the cytotoxicity at 70.5 h is -4.8%.
For `CN(C)C(=O)[C@H]1CC[C@@H]2[C@@H](CCN2Cc2ccccn2)O1`, the cytotoxicity at 70.5 h was 0.127%.
For `CN(C)C(=O)[C@@H]1CC[C@@H]2[C@@H](CCN2Cc2ccccn2)O1`, the cytotoxicity at 70.5 h was -7.99%.
For `Cn1cc(CN2Cc3c(cnn3C)C(COCC3CC3)C2)cn1` (stereo unspecified), the cytotoxicity at 70.5 h was found to be 26%.
For the compound `c1cc(CN2CCc3ncc(CN4CCOCC4)n3CC2)cs1`, the cytotoxicity at 70.5 h came out at 16.8%.
For `O=C(c1cscn1)N1CCC2(CN(Cc3ccncc3)C2)C1`, the cytotoxicity at 70.5 h is -9.93%.
With `Cc1nnc(N2CCCC3(CN(Cc4nccs4)CCO3)C2)o1` (stereo unspecified), the cytotoxicity at 70.5 h was 34.9%.
With `c1cc(-c2ccc3nc(C4CCN(CC5CC5)CC4)nn3c2)ccn1`, the cytotoxicity at 70.5 h was determined as 3.64%.
To `c1cncc(O[C@H]2CC[C@H]3[C@H]2OCCN3C2CCCC2)c1` belongs -1.6%.
Consider `c1coc(CN2CCC3(CC2)COCCN(CCN2CCCC2)C3)c1`, for which the cytotoxicity at 70.5 h was -0.522%.
For the compound `c1c[nH]c(CN2CCC3(CC2)COCCN(CCN2CCCC2)C3)c1`, the cytotoxicity at 70.5 h is -10.3%.
With `CCCN1CCc2c(C(=O)N(C)Cc3ccccn3)nn(C)c2C1`, the cytotoxicity at 70.5 h was -6.22%.
